Source: ChEMBL document CHEMBL3124816, “Preparation and optimization of new 4-(2-(indolin-1-yl)-2-oxoethyl)-2-morpholinothiazole-5-carboxylic acid and amide derivatives as potent and selective PI3Kβ inhibitors” (Bioorg Med Chem Lett, 2014)
pIC50: −log10 of the molar value. In brackets after ≈: the same amount, converted by molar mass. Activity calls are given as the source filed them. The calls are words filed in the database; no cut-off is given here.

Columns and labels:
[1] = target: T1, Phosphatidylinositol 4,5-bisphosphate 3-kinase catalytic subunit beta isoform (Homo sapiens, UniProt P42338); assay: Inhibition of human PI3Kbeta after 15 mins
Liver microsome = assay: (§1) Drug metabolism in human liver microsomes assessed as compound lability; type: ADME; details: microsomes
[2] = target: Phosphatidylinositol 4,5-bisphosphate 3-kinase catalytic subunit alpha isoform (Homo sapiens, UniProt P42336); assay: Inhibition of human PI3Kalpha after 15 mins
[3] = target: T1, Phosphatidylinositol 4,5-bisphosphate 3-kinase catalytic subunit beta isoform; assay: Inhibition of PI3Kbeta in human PTEN-deficient PC3 cells assessed as Akt phosphorylation at S473; type: cell-based, PC-3
[4] = target: T2, Phosphatidylinositol 4,5-bisphosphate 3-kinase catalytic subunit delta isoform (Homo sapiens, UniProt O00329); assay: Inhibition of human PI3Kdelta after 15 mins
T2 sequence (O00329 whole entry): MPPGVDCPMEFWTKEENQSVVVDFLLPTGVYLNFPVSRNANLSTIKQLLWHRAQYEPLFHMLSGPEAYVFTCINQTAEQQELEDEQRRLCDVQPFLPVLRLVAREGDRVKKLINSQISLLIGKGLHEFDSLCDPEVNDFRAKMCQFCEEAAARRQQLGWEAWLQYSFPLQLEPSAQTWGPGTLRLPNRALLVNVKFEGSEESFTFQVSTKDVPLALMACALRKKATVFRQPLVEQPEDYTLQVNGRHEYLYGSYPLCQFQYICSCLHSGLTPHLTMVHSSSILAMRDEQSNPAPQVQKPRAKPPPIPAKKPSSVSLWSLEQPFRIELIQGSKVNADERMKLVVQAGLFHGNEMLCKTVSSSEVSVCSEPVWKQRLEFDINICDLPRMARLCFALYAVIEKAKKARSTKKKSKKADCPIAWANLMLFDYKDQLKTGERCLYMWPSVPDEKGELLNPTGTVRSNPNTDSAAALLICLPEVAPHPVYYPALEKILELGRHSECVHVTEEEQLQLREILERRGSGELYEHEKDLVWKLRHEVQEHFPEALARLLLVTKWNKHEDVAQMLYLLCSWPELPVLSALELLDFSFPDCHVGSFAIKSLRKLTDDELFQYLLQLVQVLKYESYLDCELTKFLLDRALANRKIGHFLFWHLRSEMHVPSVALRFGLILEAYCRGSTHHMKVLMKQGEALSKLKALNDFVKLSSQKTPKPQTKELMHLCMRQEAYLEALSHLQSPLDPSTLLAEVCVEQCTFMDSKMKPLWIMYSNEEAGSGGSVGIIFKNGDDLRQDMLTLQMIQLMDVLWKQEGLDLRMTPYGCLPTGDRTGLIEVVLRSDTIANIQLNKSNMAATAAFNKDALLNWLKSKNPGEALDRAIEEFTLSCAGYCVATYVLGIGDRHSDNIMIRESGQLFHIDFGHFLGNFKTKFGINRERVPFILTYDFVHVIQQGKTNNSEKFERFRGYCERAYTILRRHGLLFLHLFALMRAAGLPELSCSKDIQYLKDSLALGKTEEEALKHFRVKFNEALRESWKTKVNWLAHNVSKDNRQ

[5] = Drug metabolism in mouse liver microsomes assessed as compound lability; type: ADME, Microsome; details: for Drug metabolism: microsomes; for metabolised: liver microsomes, read-out: Drug metabolism
[6] = target: Phosphatidylinositol 4,5-bisphosphate 3-kinase catalytic subunit gamma isoform (Homo sapiens, UniProt P48736); assay: Inhibition of human PI3Kgamma after 15 mins
Caco-2 = assay: (§2) Apparent permeability of the compound in human Caco2 cells; type: ADME, cell-based
Cytochrome P450 3A4 = Cytochrome P450 3A4 (Homo sapiens, UniProt P08684); assay: Inhibition of human recombinant CYP3A4
[7] = as §1; type: ADME; details: liver microsomes, read-out: Drug metabolism
[8] = Thermodynamic solubility of the compound in 50 mM Phosphate buffer at pH 7.4 after 16 hrs by HPLC analysis; type: physicochemical; details: phosphate buffer, pH 7.4; read-out: Therm_solubility
[9] = as §2; type: ADME, cell-based; details: Caco-2
[10] = Plasma concentration in SCID mouse harboring human PTEN-deficient PC3 cells at 100 mg/kg, po after 7 hrs; type: ADME, organism-based, PC-3; set-up: dose 100 mg/kg, route oral
[11] = Plasma concentration in SCID mouse harboring human PTEN-deficient PC3 cells at 100 mg/kg, po after 16 hrs; type: ADME, organism-based, PC-3; set-up: dose 100 mg/kg, route oral
Mus musculus [12] = assay: Inhibition of PI3Kbeta in SCID mouse harboring human PTEN-deficient PC3 cells assessed as Akt phosphorylation at S473 at 100 mg/kg, po after 1 hr; type: functional, organism-based; set-up: dose 100 mg/kg; details: PC-3
[13] = Plasma concentration in SCID mouse harboring human PTEN-deficient PC3 cells at 100 mg/kg, po after 1 hr; type: ADME, organism-based, PC-3; set-up: dose 100 mg/kg, route oral
Mus musculus [14] = assay: Inhibition of PI3Kbeta in SCID mouse harboring human PTEN-deficient PC3 cells assessed as Akt phosphorylation at S473 at 100 mg/kg, po after 16 hrs; type: functional, organism-based; set-up: dose 100 mg/kg; details: PC-3
Mus musculus [15] = assay: Inhibition of PI3Kbeta in SCID mouse harboring human PTEN-deficient PC3 cells assessed as Akt phosphorylation at S473 at 100 mg/kg, po after 7 hrs; type: functional, organism-based; set-up: dose 100 mg/kg; details: PC-3
Mus musculus [16] = assay: Inhibition of PI3Kbeta in SCID mouse harboring human PTEN-deficient PC3 cells assessed as Akt phosphorylation at S473 at 150 mg/kg, po after 16 hrs; type: functional, organism-based; set-up: dose 150 mg/kg; details: PC-3
Mus musculus [17] = assay: Inhibition of PI3Kbeta in SCID mouse harboring human PTEN-deficient PC3 cells assessed as Akt phosphorylation at S473 at 150 mg/kg, po after 7 hrs; type: functional, organism-based; set-up: dose 150 mg/kg; details: PC-3
Mus musculus [18] = assay: Inhibition of PI3Kbeta in SCID mouse harboring human PTEN-deficient PC3 cells assessed as Akt phosphorylation at S473 at 150 mg/kg, po after 1 hr; type: functional, organism-based; set-up: dose 150 mg/kg; details: PC-3
[19] = Efflux ratio of permeability from basolateral to apical side over apical to basolateral side in human Caco2 cells; type: ADME, cell-based; details: Caco-2

Sequence of Cytochrome P450 3A4 (P08684 whole entry): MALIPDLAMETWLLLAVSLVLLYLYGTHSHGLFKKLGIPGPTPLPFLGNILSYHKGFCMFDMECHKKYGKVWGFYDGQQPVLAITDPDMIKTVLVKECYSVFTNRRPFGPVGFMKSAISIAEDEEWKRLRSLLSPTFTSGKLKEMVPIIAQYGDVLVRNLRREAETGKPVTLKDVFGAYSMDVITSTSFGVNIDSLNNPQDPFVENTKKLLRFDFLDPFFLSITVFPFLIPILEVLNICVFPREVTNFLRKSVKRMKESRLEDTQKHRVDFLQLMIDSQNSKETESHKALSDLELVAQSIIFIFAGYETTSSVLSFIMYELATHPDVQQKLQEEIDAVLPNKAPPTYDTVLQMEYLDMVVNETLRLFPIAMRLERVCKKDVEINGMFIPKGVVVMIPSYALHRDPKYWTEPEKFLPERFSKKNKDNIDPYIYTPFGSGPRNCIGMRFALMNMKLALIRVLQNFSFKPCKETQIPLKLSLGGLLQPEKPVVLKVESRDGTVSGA
Sequence of Phosphatidylinositol 4,5-bisphosphate 3-kinase catalytic subunit gamma isoform (P48736 whole entry, canonical isoform): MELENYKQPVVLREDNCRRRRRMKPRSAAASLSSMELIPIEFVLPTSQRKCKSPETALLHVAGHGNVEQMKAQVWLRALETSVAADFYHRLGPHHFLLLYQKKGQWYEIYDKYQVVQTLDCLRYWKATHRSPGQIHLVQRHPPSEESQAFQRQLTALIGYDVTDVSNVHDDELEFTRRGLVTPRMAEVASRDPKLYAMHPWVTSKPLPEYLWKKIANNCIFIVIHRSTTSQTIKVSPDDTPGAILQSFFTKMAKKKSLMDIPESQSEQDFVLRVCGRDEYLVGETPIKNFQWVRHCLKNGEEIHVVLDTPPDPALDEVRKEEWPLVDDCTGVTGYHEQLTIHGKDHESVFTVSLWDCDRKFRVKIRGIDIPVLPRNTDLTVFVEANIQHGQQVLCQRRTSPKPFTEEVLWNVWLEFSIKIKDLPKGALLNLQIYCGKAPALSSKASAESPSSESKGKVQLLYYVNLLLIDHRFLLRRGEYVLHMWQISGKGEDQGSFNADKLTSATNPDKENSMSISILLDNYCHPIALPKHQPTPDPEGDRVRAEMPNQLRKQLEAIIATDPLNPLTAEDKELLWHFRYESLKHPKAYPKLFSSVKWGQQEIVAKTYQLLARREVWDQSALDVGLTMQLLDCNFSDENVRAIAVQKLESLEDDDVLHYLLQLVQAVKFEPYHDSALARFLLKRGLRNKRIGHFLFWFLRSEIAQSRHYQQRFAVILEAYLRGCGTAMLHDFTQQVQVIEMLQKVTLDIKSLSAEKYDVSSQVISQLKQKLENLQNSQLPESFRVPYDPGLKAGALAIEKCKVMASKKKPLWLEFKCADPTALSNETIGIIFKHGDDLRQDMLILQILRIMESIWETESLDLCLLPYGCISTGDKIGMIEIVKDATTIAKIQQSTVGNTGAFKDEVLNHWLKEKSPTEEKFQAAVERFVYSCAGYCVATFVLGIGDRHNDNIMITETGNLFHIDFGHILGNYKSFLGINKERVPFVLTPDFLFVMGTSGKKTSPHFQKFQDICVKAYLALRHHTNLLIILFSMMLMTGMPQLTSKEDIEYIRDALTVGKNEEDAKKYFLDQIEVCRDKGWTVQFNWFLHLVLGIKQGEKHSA
T1 sequence (P42338 whole entry, canonical isoform): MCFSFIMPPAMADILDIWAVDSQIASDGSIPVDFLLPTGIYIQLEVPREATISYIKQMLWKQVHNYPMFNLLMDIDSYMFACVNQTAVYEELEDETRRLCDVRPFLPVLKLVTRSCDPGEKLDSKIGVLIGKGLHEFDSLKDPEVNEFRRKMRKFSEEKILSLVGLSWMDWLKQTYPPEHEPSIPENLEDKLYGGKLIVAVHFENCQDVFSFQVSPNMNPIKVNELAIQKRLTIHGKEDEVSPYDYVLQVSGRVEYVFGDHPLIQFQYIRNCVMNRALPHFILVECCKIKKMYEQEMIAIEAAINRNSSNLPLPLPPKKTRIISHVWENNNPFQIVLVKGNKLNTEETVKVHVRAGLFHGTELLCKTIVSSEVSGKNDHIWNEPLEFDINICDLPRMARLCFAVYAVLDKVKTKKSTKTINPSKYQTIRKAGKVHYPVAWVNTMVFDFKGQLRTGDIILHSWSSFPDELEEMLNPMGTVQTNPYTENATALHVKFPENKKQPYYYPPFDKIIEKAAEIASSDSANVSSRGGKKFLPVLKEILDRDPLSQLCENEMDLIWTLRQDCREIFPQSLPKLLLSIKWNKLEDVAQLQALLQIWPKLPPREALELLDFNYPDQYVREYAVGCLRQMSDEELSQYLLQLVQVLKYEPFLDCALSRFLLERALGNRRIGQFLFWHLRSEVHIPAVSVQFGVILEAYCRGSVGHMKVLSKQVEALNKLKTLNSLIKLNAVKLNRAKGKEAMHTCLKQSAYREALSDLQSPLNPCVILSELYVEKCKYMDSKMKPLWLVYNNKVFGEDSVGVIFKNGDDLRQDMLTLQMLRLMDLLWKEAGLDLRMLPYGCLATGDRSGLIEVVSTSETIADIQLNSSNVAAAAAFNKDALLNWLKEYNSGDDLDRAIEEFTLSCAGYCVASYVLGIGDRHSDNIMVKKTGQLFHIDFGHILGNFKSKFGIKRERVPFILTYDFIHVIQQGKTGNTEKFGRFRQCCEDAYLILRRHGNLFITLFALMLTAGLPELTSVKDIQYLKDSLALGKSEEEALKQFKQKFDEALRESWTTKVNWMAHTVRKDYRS
Sequence of Phosphatidylinositol 4,5-bisphosphate 3-kinase catalytic subunit alpha isoform (P42336 whole entry, canonical isoform): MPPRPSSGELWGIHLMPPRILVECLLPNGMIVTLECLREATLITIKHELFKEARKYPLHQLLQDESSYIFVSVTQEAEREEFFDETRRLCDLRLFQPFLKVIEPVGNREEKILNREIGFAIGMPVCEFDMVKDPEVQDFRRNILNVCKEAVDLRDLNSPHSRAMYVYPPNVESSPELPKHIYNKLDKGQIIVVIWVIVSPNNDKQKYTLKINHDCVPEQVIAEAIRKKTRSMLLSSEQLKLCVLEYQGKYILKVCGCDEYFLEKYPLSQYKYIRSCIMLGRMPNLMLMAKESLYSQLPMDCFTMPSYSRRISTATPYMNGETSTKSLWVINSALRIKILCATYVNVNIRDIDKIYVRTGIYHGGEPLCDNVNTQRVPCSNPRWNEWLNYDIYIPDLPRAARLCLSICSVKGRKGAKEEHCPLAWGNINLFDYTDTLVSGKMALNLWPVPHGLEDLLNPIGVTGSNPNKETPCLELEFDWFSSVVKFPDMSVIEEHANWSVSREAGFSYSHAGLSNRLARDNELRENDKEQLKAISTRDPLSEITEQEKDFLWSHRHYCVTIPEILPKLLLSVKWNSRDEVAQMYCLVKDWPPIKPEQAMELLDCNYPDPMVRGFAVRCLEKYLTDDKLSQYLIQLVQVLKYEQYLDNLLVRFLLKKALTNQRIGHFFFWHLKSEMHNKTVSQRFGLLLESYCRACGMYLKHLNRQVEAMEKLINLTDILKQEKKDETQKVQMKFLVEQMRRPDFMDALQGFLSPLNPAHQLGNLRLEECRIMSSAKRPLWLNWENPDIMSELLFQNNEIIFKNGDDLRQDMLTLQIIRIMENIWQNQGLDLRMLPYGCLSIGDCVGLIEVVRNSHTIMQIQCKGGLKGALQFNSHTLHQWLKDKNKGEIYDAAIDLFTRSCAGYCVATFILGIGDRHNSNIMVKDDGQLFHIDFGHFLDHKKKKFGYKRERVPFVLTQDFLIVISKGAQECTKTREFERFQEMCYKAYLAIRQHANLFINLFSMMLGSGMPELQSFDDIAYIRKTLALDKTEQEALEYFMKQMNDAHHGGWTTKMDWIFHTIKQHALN

pIC50 [1]	pIC50 [2]	pIC50 [3]	pIC50 [4]	pIC50 [6]	pIC50 (Cytochrome P450 3A4)	metabolised [7] [%]	solubility thermodynamic at 16 h [8] [µM]	metabolised [5] [%]	Papp [9] [×10⁻⁶ cm/s]	Compound	further results
7.24	5.88	7.77	6.37	< 5.00	4.40					CC1Cc2c(Br)cccc2N1C(=O)Cc1nc(N2CCOCC2)sc1C(N)=O (single isomer, unassigned; enantiomer 2)	Drug metabolism (Liver microsome): 75%; Drug metabolism [5]: 67%; Papp (Caco-2): 20.7 ×10⁻⁶ cm/s
7.31	5.20	6.91	6.56	< 5.00	4.40	40	2 (≈ 0.814 µg/mL)	61		NC(=O)c1sc(N2CCOCC2)nc1CC(=O)N1CCc2c(Cl)cccc21	
6.57	< 5.00	5.85	5.81	< 5.00						O=C(O)c1sc(N2CCOCC2)nc1CC(=O)N1CCc2ccccc21	
8.10	< 5.00	6.06	6.83	< 5.00	4.40	8	4740 (≈ 2000 µg/mL)	17	0.9	CC1Cc2c(Cl)cccc2N1C(=O)Cc1nc(N2CCOCC2)sc1C(=O)O (centres undefined)	
7.64	5.66	5.70	6.61	< 5.00	4.40	1	1480 (≈ 602 µg/mL)	9	0.7	O=C(O)c1sc(N2CCOCC2)nc1CC(=O)N1CCc2c(Cl)cccc21	
7.70	< 5.00	7.85	6.90	< 5.00	7.40	42	45 (≈ 18.2 µg/mL)	48	19.3	CC1Cc2cc(F)ccc2N1C(=O)Cc1nc(N2CCOCC2)sc1C(N)=O (centres undefined)	
6.51	< 5.00	5.52	6.00	< 5.00						O=C(O)c1sc(N2CCOCC2)nc1CC(=O)N1CCc2cc(Br)ccc21	
8.00	< 5.00	7.89	7.24	< 5.00		77	2 (≈ 0.842 µg/mL)	70	29.6	CC1Cc2c(Cl)cccc2N1C(=O)Cc1nc(N2CCOCC2)sc1C(N)=O (centres undefined)	
7.66	5.16	7.82	6.87	< 5.00	4.40	17	7 (≈ 2.73 µg/mL)	22	22.2	NC(=O)c1sc(N2CCOCC2)nc1CC(=O)N1CCc2cc(F)ccc21	concentration at 7 h [10]: 40 nM; concentration at 16 h [11]: 4 nM; inhibition (Mus musculus [12]): Active; concentration at 1 h [13]: 310 nM; inhibition (Mus musculus [14]): Active; inhibition (Mus musculus [15]): Active
6.47	< 5.00	5.64	5.56	< 5.00						CC1Cc2ccccc2N1C(=O)Cc1nc(N2CCOCC2)sc1C(=O)O (racemic)	
7.96	5.67	7.66	6.75	5.09	4.40	57	2 (≈ 0.903 µg/mL)	63	24.7	NC(=O)c1sc(N2CCOCC2)nc1CC(=O)N1CCc2c(Br)cccc21	
7.96	5.95	5.75	6.88	< 5.00	4.40	8		0	0.2	O=C(O)c1sc(N2CCOCC2)nc1CC(=O)N1CCc2c(Br)cccc21	
										CC1Cc2c(Br)cccc2N1C(=O)Cc1nc(N2CCOCC2)sc1C(=O)O (single isomer, unassigned; enantiomer 1)	inhibition (Mus musculus [16]): Active; inhibition (Mus musculus [17]): Active; inhibition (Mus musculus [18]): Active
7.08	5.51	6.51	6.06	5.00	4.40	0	4290 (≈ 2000 µg/mL)			CC1Cc2c(Br)cccc2N1C(=O)Cc1nc(N2CCOCC2)sc1C(=O)O (single isomer, unassigned; enantiomer 2)	Drug metabolism [5]: 7%; Papp (Caco-2): 0.4 ×10⁻⁶ cm/s
7.89	5.88	8.52	7.04	5.49	4.60	85			20.9	CC1Cc2c(Br)cccc2N1C(=O)Cc1nc(N2CCOCC2)sc1C(N)=O (single isomer, unassigned; (-))	Drug metabolism [5]: 89%
7.60	< 5.00	5.76	7.19	< 5.00	4.40	1	5110 (≈ 2000 µg/mL)	1	0.4	O=C(O)c1sc(N2CCOCC2)nc1CC(=O)N1CCc2cc(F)ccc21	efflux ratio [19]: 13
6.75	< 5.00	7.40	6.36	< 5.00						CC1Cc2ccccc2N1C(=O)Cc1nc(N2CCOCC2)sc1C(N)=O (racemic)	
7.35	5.08		6.64	< 5.00						NC(=O)c1sc(N2CCOCC2)nc1CC(=O)Nc1ccc(F)c(Cl)c1	
6.86	5.14	7.42	6.31	< 5.00						NC(=O)c1sc(N2CCOCC2)nc1CC(=O)N1CCc2c(F)cccc21	
7.15	5.39	7.60	6.64	< 5.00	4.40	35	3 (≈ 1.12 µg/mL)	44	16	NC(=O)c1sc(N2CCOCC2)nc1CC(=O)N1CCc2ccccc21	
6.62	< 5.00	6.38	6.32	< 5.00						NC(=O)c1sc(N2CCOCC2)nc1CC(=O)N1CCc2cc(Br)ccc21	
7.82	< 5.00	6.09	6.66	< 5.00	4.40	3	4930 (≈ 2000 µg/mL)	3	0.9	CC1Cc2cc(F)ccc2N1C(=O)Cc1nc(N2CCOCC2)sc1C(=O)O (centres undefined)	
6.89	< 5.00	7.12	6.25	5.38						CC1CN(C(=O)Cc2nc(N3CCOCC3)sc2C(N)=O)c2ccccc21 (racemic)	
6.78	< 5.00	6.96	5.73	< 5.00						NC(=O)c1sc(N2CCOCC2)nc1CC(=O)N1CCc2cc(Cl)ccc21	
